From patent US12441773B2, “Peptides, hydrogel compositions and methods of use thereof” (Regents of the University of Minnesota, priority 2019, dated 2025)
Where a SMILES comes first, the peptide text is derived from it. [ ]: non-standard residue; d: D form. The star is where a group is joined. MeOCH2CH2OCH2CO = COCCOCC(=O)*; PEG = not defined here; PEG1 = NCCOCCC(=O)O

Legend:
Staphylococcus aureus = format: cell-based
Description: (§1) Standard broth dilution assays were performed to determine the Minimal Inhibitory Concentration (MIC) of each peptide against Pseudomonas aeruginosa (P.a.) or Staphylococcus aureus (S.a.) (Table 2).

Pseudomonas aeruginosa = format: cell-based
Description: as §1

in vitro = format: cell-based; conditions: human, human red blood cells
Description: FIG. 7: The in vitro toxicity of soluble DGL13K and PEG-pro-DGL 13K was tested against human Red Blood Cells and hemolysis recorded (% lysis compared to dH2O).
The dose causing lysis of 50% (LD50) of human red blood cells (RBC) was determined and the therapeutic index (Tx Indx) was calculated as LD50/MIC.

[1] = format: physicochemical
Description: FIG. 1: Turbidity of peptide solutions at 630 nm. Peptides were suspended in 0.01% acetic acid (our standard peptide solvent), Phosphate-Buffered Saline (PBS), pH 7.4 or dH2O.
LGL13K and DGL13K are not soluble in physiological salt solution (PBS). […] In FIG. 1, solubility is measured as the absence of optical density (OD) due to turbidity at 630 nm.

[2] = Hydrogel formation with dilute sodium hydroxide, Crystal Violet overlay; format: physicochemical; conditions: 8.3 mg/ml peptide, 16.7 mM NaOH, room temperature 5-10 min
Description: FIG. 2: Hydrogel formation of GL13 peptides. Hydrogels are overlaid with Crystal Violet solution. D=DGL13K; R=DGL13R; PEG-L=PEG-LGL13K; pro-D=PEG-pro-DGL13K; E4=PEG-E4-pro-DGL13K; L=LGL13K.
FIG. 8: Hydrogels were formed with 4.2 mg/ml peptide+sodium hydroxide at the concentrations shown. Hydrogels were overlaid with Crystal Violet. Two phases indicate the formation of a hydrogel; Phase mixing indicates the absence of hydrogel. The hydrogels formed at 6.7 mM NaOH were not stable overnight (not shown).
FIG. 9: Hydrogels were formed with 16.7 mM sodium hydroxide and peptides at the concentrations shown. D=DGL13K; L=LGL13K; R=DGL13R. Hydrogels were overlaid with Crystal Violet and imaged within 10 min. Two phases indicate the formation of a hydrogel; Phase mixing indicates the absence of hydrogel.
The antimicrobial peptide GL13K can form a hydrogel when the peptide is reacted with dilute sodium hydroxide. Hydrogels were formed by incubating 8.3 mg/ml peptide with 16.7 mM NaOH and incubating at room temperature for 5-10 min. Hydrogels were overlaid with Crystal Violet. Two phases indicate the formation of a hydrogel; Phase mixing indicates the absence of hydrogel.

S. aureus = assay: Peptide hydrogels placed on S. aureus plated on agar; format: cell-based, Staphylococcus aureus; conditions: hydrogel on agar plate
Description: FIG. 3. Peptide hydrogels on S. aureus.
(§2) To test antibacterial activity, S. aureus (FIG. 3) or P. aeruginosa (FIG. 4) were plated on agar and peptide hydrogels placed on top of the bacteria. The plates were incubated to allow a bacterial lawn to grow. […] The larger inhibition zone seen for DGL13R is consistent with a lack of hydrogel formation, which allowed the peptide solution to spread on the plate.

[3] = system: Galleria mellonella (waxmoth larvae); conditions: in vivo
Description: FIG. 6: Galleria mellonella (wax moth larvae) were injected with liquid or hydrogel forms of the listed peptide. Larval survival was monitored for 48 h.
Hydrogels are less toxic in vitro and in vivo than the unmodified peptide. To test toxicity in vivo, hydrogels of DGL13K, PEG-pro-DGL13K (PEG-DGL13K) or liquid PEG-DGL13K were injected into Galleria mellonella (waxmoth larvae) and survival monitored for 48 hrs (FIG. 6). […] Hydrogel of PEG-pro-DGL13K was less toxic than hydrogel of the unmodified DGL13K peptide.

P. aeruginosa = assay: Peptide hydrogels placed on P. aeruginosa plated on agar; format: cell-based, Pseudomonas aeruginosa; conditions: hydrogel on agar plate
Description: FIG. 4: Peptide hydrogels on P. aeruginosa Ac.Ac.=0.01% acetic acid mixed with NaOH (buffer control).
as §2

mouse skin burn = assay: Mouse burn wound healing model; format: in vivo; conditions: seven days after the burn

## H-GKIIKLKASLKLL-NH2 [LGL13K]
Staphylococcus aureus
  Minimal Inhibitory Concentration S.a.: 20.8 µg/mL
Pseudomonas aeruginosa
  Minimal Inhibitory Concentration P.a.: 10.4 µg/mL
In vitro
  HC50: 188 µg/mL
[1]
  Solubility in physiological salt solution (PBS): not soluble
[2]
  Hydrogel formation: formed hydrogels
S. aureus
  Growth of S. aureus lawn under peptide hydrogel: prevented the growth

## CC[C@H](C)[C@H](NC(=O)[C@H](CCCCN)NC(=O)CNC(=O)COCCOC)C(=O)N[C@H](C(=O)N[C@@H](CCCCN)C(=O)N[C@@H](CC(C)C)C(=O)N[C@@H](CCCCN)C(=O)N[C@@H](C)C(=O)N[C@@H](CO)C(=O)N[C@@H](CC(C)C)C(=O)N[C@@H](CCCCN)C(=O)N[C@@H](CC(C)C)C(=O)N[C@@H](CC(C)C)C(N)=O)[C@@H](C)CC [PEG-LGL13K] (MeOCH2CH2OCH2CO-GKIIKLKASLKLL-NH2; N-terminus assumed)
Staphylococcus aureus
  Minimal Inhibitory Concentration S.a.: 83 µg/mL
Pseudomonas aeruginosa
  Minimal Inhibitory Concentration P.a.: 20.8 µg/mL
[2]
  Hydrogel formation: formed hydrogels

## CC[C@@H](C)[C@@H](NC(=O)[C@@H](CCCCN)NC(=O)CNC(=O)CCOCCN)C(=O)N[C@@H](C(=O)N[C@H](CCCCN)C(=O)N[C@H](CC(C)C)C(=O)N[C@H](CCCCN)C(=O)N[C@H](C)C(=O)N[C@H](CO)C(=O)N[C@H](CC(C)C)C(=O)N[C@H](CCCCN)C(=O)N[C@H](CC(C)C)C(=O)N[C@H](CC(C)C)C(N)=O)[C@H](C)CC [PEG-DGL13K, PEG-Gly-d-Lys-d-Ile-d-Ile-d-Lys-d-Leu-d-Lys-d-Ala-d-Ser-d-Leu-d-Lys-d-Leu-d-Leu-CONH2] (H-[PEG1]G[dK][dI][dI][dK][dL][dK][dA][dS][dL][dK][dL][dL]-NH2)
Pseudomonas aeruginosa
  Minimal Inhibitory Concentration P.a.: 5 to 10.4 µg/mL
[1]
  Solubility in physiological salt solution (PBS): soluble in PBS
[3]
  Toxicity of hydrogel compared with hydrogel of unmodified DGL13K: less toxic

## CC[C@@H](C)[C@@H](NC(=O)[C@@H](CCCNC(=N)N)NC(=O)CN)C(=O)N[C@@H](C(=O)N[C@H](CCCNC(=N)N)C(=O)N[C@H](CC(C)C)C(=O)N[C@H](CCCNC(=N)N)C(=O)N[C@H](C)C(=O)N[C@H](CO)C(=O)N[C@H](CC(C)C)C(=O)N[C@H](CCCNC(=N)N)C(=O)N[C@H](CC(C)C)C(=O)N[C@H](CC(C)C)C(N)=O)[C@H](C)CC [DGL13R, NH2-Gly-d-Arg-d-Ile-d-Ile-d-Arg-d-Leu-d-Arg-d-Ala-d-Ser-d-Leu-d-Arg-d-Leu-d-Leu-CONH2] (H-G[dR][dI][dI][dR][dL][dR][dA][dS][dL][dR][dL][dL]-NH2)
Staphylococcus aureus
  Minimal Inhibitory Concentration S.a.: 1.3 to 2.6 µg/mL
Pseudomonas aeruginosa
  Minimal Inhibitory Concentration P.a.: 2.6 µg/mL
In vitro
  HC50: 500 µg/mL
P. aeruginosa
  Growth of P. aeruginosa lawn under peptide hydrogel: effectively prevented the growth
[1]
  Solubility in physiological salt solution (PBS): increased solubility
[2]
  Hydrogel formation: did not form hydrogels

## CC[C@@H](C)[C@@H](NC(=O)[C@@H](CCCCN)NC(=O)CN)C(=O)N[C@@H](C(=O)N[C@H](CCCCN)C(=O)N[C@H](CC(C)C)C(=O)N[C@H](CCCCN)C(=O)N[C@H](C)C(=O)N[C@H](CO)C(=O)N[C@H](CC(C)C)C(=O)N[C@H](CCCCN)C(=O)N[C@H](CC(C)C)C(=O)N[C@H](CC(C)C)C(N)=O)[C@H](C)CC [DGL13K, NH2-Gly-d-Lys-d-Ile-d-Ile-d-Lys-d-Leu-d-Lys-d-Ala-d-Ser-d-Leu-d-Lys-d-Leu-d-Leu-CONH2] (H-G[dK][dI][dI][dK][dL][dK][dA][dS][dL][dK][dL][dL]-NH2)
Staphylococcus aureus
  Minimal Inhibitory Concentration S.a.: 1.3 to 2.6 µg/mL
Pseudomonas aeruginosa
  Minimal Inhibitory Concentration P.a.: 5.2 µg/mL
In vitro
  HC50: 500 µg/mL
P. aeruginosa
  Growth of P. aeruginosa lawn under peptide hydrogel: effectively prevented the growth
[2]
  Hydrogel formation: formed hydrogels
Mouse skin burn
  Improved healing compared to SSD-treated mice: 48%
Mouse skin burn; peptide in solution or hydrogel
  Improved healing compared to the control mice: 36%
S. aureus
  Growth of S. aureus lawn under peptide hydrogel: prevented the growth

## CC[C@@H](C)[C@@H](NC(=O)[C@@H](CCCCN)NC(=O)CNC(=O)[C@@H](C)NC(=O)CNC(=O)CNC(=O)[C@@H](CC(C)C)NC(=O)CCOCCN)C(=O)N[C@@H](C(=O)N[C@H](CCCCN)C(=O)N[C@H](CC(C)C)C(=O)N[C@H](CCCCN)C(=O)N[C@H](C)C(=O)N[C@H](CO)C(=O)N[C@H](CC(C)C)C(=O)N[C@H](CCCCN)C(=O)N[C@H](CC(C)C)C(=O)N[C@H](CC(C)C)C(N)=O)[C@H](C)CC [PEG-pro-DGL13K, PEG-d-Leu-Gly-Gly-d-Ala-Gly-d-Lys-d-Ile-d-Ile-d-Lys-d-Leu-d-Lys-d-Ala-d-Ser-d-Leu-d-Lys-d-Leu-d-Leu-CONH2] (H-[PEG1][dL]GG[dA]G[dK][dI][dI][dK][dL][dK][dA][dS][dL][dK][dL][dL]-NH2)
Staphylococcus aureus
  Minimal Inhibitory Concentration S.a.: 5.2 µg/mL
Pseudomonas aeruginosa
  Minimal Inhibitory Concentration P.a.: 10.4 µg/mL
In vitro
  HC50: 1000 µg/mL
[3]
  Toxicity of hydrogel compared with hydrogel of unmodified DGL13K: less toxic

## PEG-d-Glu-d-Glu-d-Glu-d-Glu-d-Leu-Gly-Gly-d-Ala-Gly-d-Lys-d-Ile-d-Ile-d-Lys-d-Leu-d-Lys-d-Ala-d-Ser-d-Leu-d-Lys-d-Leu-d-Leu-CONH2 ({PEG}-[dE][dE][dE][dE][dL]GG[dA]G[dK][dI][dI][dK][dL][dK][dA][dS][dL][dK][dL][dL]-NH2; reading uncertain) [PEG-E4-pro-DGL13K]
[2]
  Hydrogel formation: did not form hydrogels

## polymyxin B [reference compound]
[2]
  Hydrogel formation: does not form hydrogel
